In PMC8037182, “Solvothermal Synthesis of Multiple Dihydropyrimidinones at a Time as Inhibitors of Eg5” (Molecules, 2021):
Where “and” joins values, the source holds several entries; their conditions need not be identical. Identical values can stand only once.

Columns and labels:
T24 cell line = experiment: Cytotoxicity MTS assay, T24 cell line; type: cell-based; conditions: for OD490 Mean / OD490 Well 1 / OD490 Well 2 / OD490 Well 3: T24 cell line
Method: (§1) The positive compounds (IC50 < 100 μM) obtained from the primary Eg5 motor protein ATPase assay were tested for antiproliferative activity in vitro against Caco-2 cell line, Hela cell line, L929 cell line and T24 cell line by performing MTS assay. Cells were introduced into 96-well plates at a density of 1000 cells per well. After 24 h incubation, the cells were exposed with compounds at final concentrations ranging from 0.5 to 100 µM for 24 h. DMSO was used at a final concentration of 0.025% as blank control, monastrol was used as the positive control. Then 20 µL (CellTiter 96® AQueous One Solution Promega, Madison, WI, USA) reagent was added in each well. After 2 h at 37 °C in a 80% humidified, 5% CO2 atmosphere, the absorbance at 490 nm was recorded using a microplate reader (BIO-RAD iMark^TM). The results were obtained in three independent duplicate experiments. The primary data were shown in Supplementary Materials Tables S4–S7. The IC50 values for these compounds were calculated from a non-linear regression graph plotted between the percentage of cell viability and concentration with SPSS17.0 software.

L929 cell line = experiment: Cytotoxicity MTS assay, L929 cell line; type: cell-based; conditions: for OD490 values, Mean / OD490 values, Well 1 / OD490 values, Well 2 / OD490 values, Well 3 / OD490, single wells / OD490 Mean: L929 cell line; for OD490, single wells / OD490 Mean: MTS; for OD490, single wells: Well 1-3; for OD490 Mean: mean of 3 wells
Method: as §1

With `CCOC(=O)C1=C(C)NC(=S)NC1c1cccc(O)c1` (centres unmarked) [Monastrol, monastrol, reference compound] the IC50 (T24 cell line; Homo sapiens, T-24, MTS assay, 24 h exposure) was 129 µM, the “OD490 Mean” value (T24 cell line; 0.5μM, first assay) was 1.5184 and the “OD490 Well 1” value (T24 cell line; 0.5μM, first assay) was 1.3936. For the same molecule, the “OD490 Well 2” value (T24 cell line; 0.5μM, first assay) was 1.6757, the “OD490 Well 3” value (T24 cell line; 0.5μM, first assay) was 1.4858 and the “OD490 Mean” value (T24 cell line; 0.5μM, second assay) was 1.7880. For the same molecule, the “OD490 Well 1” value (T24 cell line; 0.5μM, second assay) was 1.9582, the “OD490 Well 2” value (T24 cell line; 0.5μM, second assay) was 1.7425 and the “OD490 Well 3” value (T24 cell line; 0.5μM, second assay) was 1.6632. The “OD490 Mean” value (T24 cell line; 0.5μM, third assay) was 1.7701, the “OD490 Well 1” value (T24 cell line; 0.5μM, third assay) was 1.9582 and the “OD490 Well 2” value (T24 cell line; 0.5μM, third assay) was 1.6852. The “OD490 Well 3” value (T24 cell line; 0.5μM, third assay) was 1.6669, the “OD490 Mean” value (T24 cell line; 1μM, first assay) was 1.8525 and the “OD490 Well 1” value (T24 cell line; 1μM, first assay) was 1.8866. For the same molecule, the “OD490 Well 2” value (T24 cell line; 1μM, first assay) was 1.8580, the “OD490 Well 3” value (T24 cell line; 1μM, first assay) was 1.8130 and the “OD490 Mean” value (T24 cell line; 1μM, second assay) was 1.7956. The “OD490 Well 1” value (T24 cell line; 1μM, second assay) was 1.8475, the “OD490 Well 2” value (T24 cell line; 1μM, second assay) was 1.7952 and the “OD490 Well 3” value (T24 cell line; 1μM, second assay) was 1.7442. For the same molecule, the “OD490 Mean” value (T24 cell line; 1μM, third assay) was 1.6875, the “OD490 Well 1” value (T24 cell line; 1μM, third assay) was 1.4752 and the “OD490 Well 2” value (T24 cell line; 1μM, third assay) was 1.8852. The “OD490 Well 3” value (T24 cell line; 1μM, third assay) was 1.7020, the “OD490 Mean” value (T24 cell line; 10μM, first assay) was 1.8245 and the “OD490 Well 1” value (T24 cell line; 10μM, first assay) was 1.8141. For the same molecule, the “OD490 Well 2” value (T24 cell line; 10μM, first assay) was 1.7506, the “OD490 Well 3” value (T24 cell line; 10μM, first assay) was 1.9088 and the “OD490 Mean” value (T24 cell line; 10μM, second assay) was 1.6766. The “OD490 Well 1” value (T24 cell line; 10μM, second assay) was 1.5874, the “OD490 Well 2” value (T24 cell line; 10μM, second assay) was 1.5998 and the “OD490 Well 3” value (T24 cell line; 10μM, second assay) was 1.8425. The “OD490 Mean” value (T24 cell line; 10μM, third assay) was 1.6451, the “OD490 Well 1” value (T24 cell line; 10μM, third assay) was 1.7425 and the “OD490 Well 2” value (T24 cell line; 10μM, third assay) was 1.6625. The “OD490 Well 3” value (T24 cell line; 10μM, third assay) was 1.5302, the “OD490 Mean” value (T24 cell line; 25μM, first assay) was 1.7708 and the “OD490 Well 1” value (T24 cell line; 25μM, first assay) was 1.7726. The “OD490 Well 2” value (T24 cell line; 25μM, first assay) was 1.7434, the “OD490 Well 3” value (T24 cell line; 25μM, first assay) was 1.7965 and the “OD490 Mean” value (T24 cell line; 25μM, second assay) was 1.7004. The “OD490 Well 1” value (T24 cell line; 25μM, second assay) was 1.7416, the “OD490 Well 2” value (T24 cell line; 25μM, second assay) was 1.7723 and the “OD490 Well 3” value (T24 cell line; 25μM, second assay) was 1.5874. The “OD490 Mean” value (T24 cell line; 25μM, third assay) was 1.7296, the “OD490 Well 1” value (T24 cell line; 25μM, third assay) was 1.7711 and the “OD490 Well 2” value (T24 cell line; 25μM, third assay) was 1.6854. For the same molecule, the “OD490 Well 3” value (T24 cell line; 25μM, third assay) was 1.7324, the “OD490 Mean” value (T24 cell line; 50μM, first assay) was 1.5876 and the “OD490 Well 1” value (T24 cell line; 50μM, first assay) was 1.5372. For the same molecule, the “OD490 Well 2” value (T24 cell line; 50μM, first assay) was 1.6410, the “OD490 Well 3” value (T24 cell line; 50μM, first assay) was 1.5845 and the “OD490 Mean” value (T24 cell line; 50μM, second assay) was 1.6611. For the same molecule, the “OD490 Well 1” value (T24 cell line; 50μM, second assay) was 1.6325, the “OD490 Well 2” value (T24 cell line; 50μM, second assay) was 1.6666 and the “OD490 Well 3” value (T24 cell line; 50μM, second assay) was 1.6841. The “OD490 Mean” value (T24 cell line; 50μM, third assay) was 1.4371, the “OD490 Well 1” value (T24 cell line; 50μM, third assay) was 1.3024 and the “OD490 Well 2” value (T24 cell line; 50μM, third assay) was 1.5270. The “OD490 Well 3” value (T24 cell line; 50μM, third assay) was 1.4820, the “OD490 Mean” value (T24 cell line; 100μM, first assay) was 1.3979 and the “OD490 Well 1” value (T24 cell line; 100μM, first assay) was 1.3668. For the same molecule, the “OD490 Well 2” value (T24 cell line; 100μM, first assay) was 1.4841, the “OD490 Well 3” value (T24 cell line; 100μM, first assay) was 1.3428 and the “OD490 Mean” value (T24 cell line; 100μM, second assay) was 1.3537. For the same molecule, the “OD490 Well 1” value (T24 cell line; 100μM, second assay) was 1.3658, the “OD490 Well 2” value (T24 cell line; 100μM, second assay) was 1.3365 and the “OD490 Well 3” value (T24 cell line; 100μM, second assay) was 1.3587. The “OD490 Mean” value (T24 cell line; 100μM, third assay) was 1.3785, the “OD490 Well 1” value (T24 cell line; 100μM, third assay) was 1.4550 and the “OD490 Well 2” value (T24 cell line; 100μM, third assay) was 1.3885. The “OD490 Well 3” value (T24 cell line; 100μM, third assay) was 1.2920, the “OD490 values, Mean” value (L929 cell line; 50μM, first assay) was 1.3431 and the “OD490 values, Well 1” value (L929 cell line; 50μM, first assay) was 1.3844. For the same molecule, the “OD490 values, Well 2” value (L929 cell line; 50μM, first assay) was 1.2943, the “OD490 values, Well 3” value (L929 cell line; 50μM, first assay) was 1.3505 and the “OD490 values, Mean” value (L929 cell line; 50μM, second assay) was 1.3490. The “OD490 values, Well 1” value (L929 cell line; 50μM, second assay) was 1.3355, the “OD490 values, Well 2” value (L929 cell line; 50μM, second assay) was 1.2894 and the “OD490 values, Well 3” value (L929 cell line; 50μM, second assay) was 1.4221. The “OD490 values, Mean” value (L929 cell line; 50μM, third assay) was 1.5704, the “OD490 values, Well 1” value (L929 cell line; 50μM, third assay) was 1.5524 and the “OD490 values, Well 2” value (L929 cell line; 50μM, third assay) was 1.4714. The “OD490 values, Well 3” value (L929 cell line; 50μM, third assay) was 1.6874, the “OD490 values, Mean” value (L929 cell line; 100μM, first assay) was 1.0251 and the “OD490 values, Well 1” value (L929 cell line; 100μM, first assay) was 1.0639. The “OD490 values, Well 2” value (L929 cell line; 100μM, first assay) was 1.0037, the “OD490 values, Well 3” value (L929 cell line; 100μM, first assay) was 1.0076 and the “OD490 values, Mean” value (L929 cell line; 100μM, second assay) was 1.2469. For the same molecule, the “OD490 values, Well 1” value (L929 cell line; 100μM, second assay) was 1.2354, the “OD490 values, Well 2” value (L929 cell line; 100μM, second assay) was 1.2789 and the “OD490 values, Well 3” value (L929 cell line; 100μM, second assay) was 1.2265. The “OD490 values, Mean” value (L929 cell line; 100μM, third assay) was 1.4401, the “OD490 values, Well 1” value (L929 cell line; 100μM, third assay) was 1.4541 and the “OD490 values, Well 2” value (L929 cell line; 100μM, third assay) was 1.4710. For the same molecule, the “OD490 values, Well 3” value (L929 cell line; 100μM, third assay) was 1.3952, the “OD490, single wells” value (L929 cell line; 1μM, first assay) was 1.2759 and 1.1464 and 1.2212 and the “OD490 Mean” value (L929 cell line; 1μM, first assay) was 1.2145. For the same molecule, the “OD490, single wells” value (L929 cell line; 1μM, second assay) was 1.3847 and 1.2145 and 1.3654, the “OD490 Mean” value (L929 cell line; 1μM, second assay) was 1.3215 and the “OD490, single wells” value (L929 cell line; 1μM, third assay) was 1.5474 and 1.5368 and 1.4987. For the same molecule, the “OD490 Mean” value (L929 cell line; 1μM, third assay) was 1.5276, the “OD490, single wells” value (L929 cell line; 1.5μM, first assay) was 1.1568 and 1.0812 and 1.2095 and the “OD490 Mean” value (L929 cell line; 1.5μM, first assay) was 1.1492. The “OD490, single wells” value (L929 cell line; 1.5μM, second assay) was 1.2478 and 1.3254 and 1.2897, the “OD490 Mean” value (L929 cell line; 1.5μM, second assay) was 1.2876 and the “OD490, single wells” value (L929 cell line; 1.5μM, third assay) was 1.5823 and 1.5874 and 1.5332. The “OD490 Mean” value (L929 cell line; 1.5μM, third assay) was 1.5676, the “OD490, single wells” value (L929 cell line; 10μM, first assay) was 1.1741 and 1.1023 and 1.0651 and the “OD490 Mean” value (L929 cell line; 10μM, first assay) was 1.1138. The “OD490, single wells” value (L929 cell line; 10μM, second assay) was 1.3582 and 1.6874 and 1.3354, the “OD490 Mean” value (L929 cell line; 10μM, second assay) was 1.4603 and the “OD490, single wells” value (L929 cell line; 10μM, third assay) was 1.4784 and 1.4585 and 1.6874. The “OD490 Mean” value (L929 cell line; 10μM, third assay) was 1.5414, the “OD490, single wells” value (L929 cell line; 25μM, first assay) was 1.2192 and 1.1415 and 1.0377 and the “OD490 Mean” value (L929 cell line; 25μM, first assay) was 1.1328. For the same molecule, the “OD490, single wells” value (L929 cell line; 25μM, second assay) was 1.2214 and 1.3652, the “OD490 Mean” value (L929 cell line; 25μM, second assay) was 1.3173 and the “OD490, single wells” value (L929 cell line; 25μM, third assay) was 1.6324 and 1.5241 and 1.7241. For the same molecule, the “OD490 Mean” value (L929 cell line; 25μM, third assay) was 1.6269 and the IC50 (L929 cell line; Mus musculus, L929, MTS assay, 24 h exposure, ordinary fibroblast, not cancer cells) was greater than 150 µM.
